This note sets out measurements from PubChem BioAssay AID743423 (Vanderbilt Specialized Chemistry Center, 2014).

Active and inactive are the calls of the source. How the calls were made is not given here.

Chain of Metabotropic glutamate receptor 4 (Homo sapiens) (Q14833 whole entry, looked up): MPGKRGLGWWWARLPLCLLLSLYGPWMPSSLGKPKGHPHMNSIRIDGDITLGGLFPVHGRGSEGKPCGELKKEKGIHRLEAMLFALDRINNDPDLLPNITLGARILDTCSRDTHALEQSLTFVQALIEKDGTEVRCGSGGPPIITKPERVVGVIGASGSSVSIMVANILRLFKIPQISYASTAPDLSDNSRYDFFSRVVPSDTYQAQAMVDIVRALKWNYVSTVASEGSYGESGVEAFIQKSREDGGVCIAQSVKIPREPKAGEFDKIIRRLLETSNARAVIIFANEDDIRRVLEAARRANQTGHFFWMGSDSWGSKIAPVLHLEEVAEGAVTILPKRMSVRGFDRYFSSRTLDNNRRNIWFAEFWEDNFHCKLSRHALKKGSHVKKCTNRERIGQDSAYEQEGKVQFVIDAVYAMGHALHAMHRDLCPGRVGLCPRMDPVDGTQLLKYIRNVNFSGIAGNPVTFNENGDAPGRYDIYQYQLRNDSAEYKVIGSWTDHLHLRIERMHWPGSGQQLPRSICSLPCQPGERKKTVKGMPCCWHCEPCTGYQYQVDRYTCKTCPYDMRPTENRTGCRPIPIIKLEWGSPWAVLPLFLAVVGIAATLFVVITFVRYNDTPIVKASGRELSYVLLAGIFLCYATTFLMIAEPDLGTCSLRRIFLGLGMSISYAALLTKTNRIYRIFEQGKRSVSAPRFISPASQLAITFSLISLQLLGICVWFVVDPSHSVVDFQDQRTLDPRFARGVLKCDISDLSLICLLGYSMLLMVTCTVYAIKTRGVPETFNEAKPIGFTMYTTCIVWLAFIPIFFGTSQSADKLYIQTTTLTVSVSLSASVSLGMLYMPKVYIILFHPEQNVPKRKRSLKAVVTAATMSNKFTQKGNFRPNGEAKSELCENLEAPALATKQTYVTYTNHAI

One test addresses Metabotropic glutamate receptor 4 (Homo sapiens) (UniProt Q14833). Kind of test: mGlu4 positive allosteric modulator potency, dose response, selectivity assay for mGlu7/mGlu8 PAM project, CHO Gqi5 cells, Fluo-4 calcium (AID 743423). Particulars: Fluo-4 calcium fluorescence.
On to `COC(=O)c1ccc(-n2c(C)cc(C(=O)CSc3ccc(NC(C)=O)cc3)c2C)cc1`, for which the EC50 was 3.43 µM.
Still for that read-out and setting: then `COC(=O)c1ccc(-n2c(C)cc(C(=O)COc3ccc(NC(C)=O)cc3)c2C)cc1`, with 10 µM; and `CC(=O)Nc1ccc(SCC(=O)c2cc(C)n(CC3COc4ccccc4O3)c2C)cc1` (stereo not drawn), with 2.2 µM.
For `CC(=O)Nc1ccc(SCC(=O)c2cc(C)n(-c3nc(C)cs3)c2C)cc1`, the EC50 was 10 µM.
Same read-out and setting: to `CCOc1ccc(-n2c(C)cc(C(=O)CSc3ccc(OC)cc3)c2C)cc1` belongs 10 µM; to `COC(=O)c1ccc(-n2c(C)cc(C(=O)COc3ccc(OC(C)=O)cc3)c2C)cc1`, 10 µM.
The same measure, in the same setting: to `COC(=O)c1ccc(-n2c(C)cc(C(=O)CSCc3ccc(OC)cc3)c2C)cc1` belongs 1 µM; to `CC(=O)Nc1ccc(SCC(=O)c2cc(C)n(-c3ccc(S(N)(=O)=O)cc3)c2C)cc1`, 10 µM.
The same measure, in the same setting: to `CCOc1ccc(-n2c(C)cc(C(=O)CSCc3ccc(OC)cc3)c2C)cc1` belongs 10 µM.
Regarding `COc1ccc(SCC(=O)c2cc(C)n(-c3ccc(OC(F)F)cc3)c2C)cc1`, the EC50 was 10 µM.
Still for that read-out and setting: to `CCn1c(C)cc(C(=O)CSc2ccc(NC(C)=O)cc2)c1C` belongs 10 µM.
The same measure, in the same setting: then `CC(=O)Nc1ccc(SCC(=O)c2cc(C)n(-c3cccc(F)c3)c2C)cc1`, with 3.3 µM.
On to `COC(=O)c1ccc(-n2c(C)cc(C(=O)CSc3ccc(N(C)C(C)=O)cc3)c2C)cc1`, for which the EC50 was 10 µM.
On the same count and under the same terms, to `COC(=O)c1ccc(-n2c(C)cc(C(=O)CSCc3cccc(C)c3)c2C)cc1` belongs 10 µM; to `CC(=O)Nc1ccc(SCC(=O)c2cc(C)n(CC3CCCO3)c2C)cc1` (stereo not drawn), 10 µM.
On the same count and under the same terms, to `CC(=O)Nc1ccc(SCC(=O)c2cc(C)n(CCc3cccs3)c2C)cc1` belongs 2.6 µM; to `CC(=O)Nc1ccc(OCC(=O)c2cc(C)n(-c3ccc(OC(F)F)cc3)c2C)cc1`, 10 µM.

The same test, now with this note: Fluo-4 calcium fluorescence, at 30 µM (top of the series).
For the compound `CCOc1ccc(-n2c(C)cc(C(=O)CSCc3cccc(C)c3)c2C)cc1`, the “% glutamate max response” value was “inactive”.
The same measure, in the same setting: then `COc1ccc(CSCC(=O)c2cc(C)n(-c3ccc(OC(F)F)cc3)c2C)cc1`, with “inactive”; and `COC(=O)c1ccc(-n2c(C)cc(C(=O)COc3cccc(N(C)C)c3)c2C)cc1`, with “inactive”; and `COC(=O)c1ccc(-n2c(C)cc(C(=O)CNc3ccc(C(=O)O)cc3)c2C)cc1`, with “inactive”.
Same read-out and setting: then `CC(=O)Nc1ccc(SCC(=O)c2cc(C)n(-c3ccccc3F)c2C)cc1`, with 22.3.
The same measure, in the same setting: to `Cc1ccc(CSCC(=O)c2cc(C)n(-c3ccc(OC(F)F)cc3)c2C)cc1` belongs “inactive”.

In general, EC50 refers to the concentration that produces a half-maximal response.
